Assay results as given in PubChem BioAssay AID1259407 (Chemical Carcinogenesis Research Information System (CCRIS), 2018).
Calls of active or inactive are those of the source. How the calls were made is not given here.

System: CCRIS mutagenicity, Ames/micronucleus/aberration tests
Test: CCRIS mutagenicity studies
[1] = Test System: AMES SALMONELLA TYPHIMURIUM, Strain/Indicator: TA98, Metabolic Activation: NONE, Method: STANDARD PLATE
[2] = Test System: AMES SALMONELLA TYPHIMURIUM, Strain/Indicator: TA98, Metabolic Activation: RAT, LIVER, S-9, AROCLOR 1254, Method: STANDARD PLATE
[3] = Test System: AMES SALMONELLA TYPHIMURIUM, Strain/Indicator: TA100, Metabolic Activation: NONE, Method: STANDARD PLATE
[4] = Test System: AMES SALMONELLA TYPHIMURIUM, Strain/Indicator: TA1535, Metabolic Activation: NONE, Method: STANDARD PLATE

Measured: mutagenic call

CC(C)CCC[C@@H](C)[C@H]1CC[C@H]2[C@@H]3C[C@@H](O)[C@@]4(O)C[C@@H](O)CC[C@]4(C)[C@H]3CC[C@]12C
inactive: Test System: AMES SALMONELLA TYPHIMURIUM, Strain/Indicator: TA97, Metabolic Activation: RAT, LIVER, S-9, AROCLOR 1254, Method: STANDARD PLATE inactive; negative | [2] inactive; negative | Test System: AMES SALMONELLA TYPHIMURIUM, Strain/Indicator: TA100, Metabolic Activation: RAT, LIVER, S-9, AROCLOR 1254, Method: STANDARD PLATE inactive; negative | Test System: AMES SALMONELLA TYPHIMURIUM, Strain/Indicator: TA102, Metabolic Activation: RAT, LIVER, S-9, AROCLOR 1254, Method: STANDARD PLATE inactive; negative | Test System: CHINESE HAMSTER V-79, Strain/Indicator: V-79/OUABAIN, Metabolic Activation: NONE inactive; negative
active: Test System: AMES SALMONELLA TYPHIMURIUM, Strain/Indicator: TA97, Metabolic Activation: NONE, Method: STANDARD PLATE active; positive | [1] active; positive | [3] active; positive | Test System: AMES SALMONELLA TYPHIMURIUM, Strain/Indicator: TA102, Metabolic Activation: NONE, Method: STANDARD PLATE active; positive | [4] active; positive | Test System: AMES SALMONELLA TYPHIMURIUM, Strain/Indicator: TA1535, Metabolic Activation: RAT, LIVER, S-9, AROCLOR 1254, Method: STANDARD PLATE active; positive | Test System: CHINESE HAMSTER V-79, Strain/Indicator: V-79/8-AZAGUANINE, Metabolic Activation: NONE active; positive | Test System: IN VITRO CHROMOSOMAL ABERRATIONS, Strain/Indicator: CHINESE HAMSTER OVARY EPITHELIAL (CHO-K1) CELLS, Metabolic Activation: NONE active; positive (structural changes) | Test System: IN VITRO CHROMOSOMAL ABERRATIONS, Strain/Indicator: CHINESE HAMSTER OVARY EPITHELIAL (CHO-K1) CELLS, Metabolic Activation: RAT, LIVER, S-9, AROCLOR 1254 active; positive (structural changes); lower response in presence of s-9

CCn1c(N)nc2c3nc(C)cnc3ccc21
active: Test System: AMES SALMONELLA TYPHIMURIUM, Strain/Indicator: TA98, Metabolic Activation: RAT, LIVER, S-9, AROCLOR 1254, Method: PREINCUBATION active; positive

O=[N+]([O-])c1ccc2ccc3cccc4cc(O)c1c2c34
active: [1] active; positive | [2] active; positive

CC(=O)N(O)c1ccc(Oc2ccc(Cl)cc2)cc1
active: Test System: AMES SALMONELLA TYPHIMURIUM, Strain/Indicator: TA100, Metabolic Activation: GUINEA PIG, LIVER, MICROSOMAL FRACTION, PCB active; positive | Test System: AMES SALMONELLA TYPHIMURIUM, Strain/Indicator: TA100, Metabolic Activation: GUINEA PIG, LIVER, S-9, PCB active; positive | Test System: AMES SALMONELLA TYPHIMURIUM, Strain/Indicator: TA100, Metabolic Activation: GUINEA PIG, LIVER, S-105, PCB active; positive | Test System: AMES SALMONELLA TYPHIMURIUM, Strain/Indicator: TA100, Metabolic Activation: RAT, LIVER, S-9, KANECLOR 500, Method: STANDARD PLATE active; positive
inactive: [3] inactive; negative

O=Nc1c(-c2ccc(Cl)cc2)nc2sccn12
inactive: [1] inactive; negative | [3] inactive; negative | [4] inactive; negative
active: Test System: AMES SALMONELLA TYPHIMURIUM, Strain/Indicator: TA1537, Metabolic Activation: NONE, Method: STANDARD PLATE active; positive | Test System: AMES SALMONELLA TYPHIMURIUM, Strain/Indicator: TA1538, Metabolic Activation: NONE, Method: STANDARD PLATE active; positive

O[C@@H]1[C@H]2O[C@H]2c2c(ccc3c2ccc2ccccc23)[C@H]1O
active: Test System: AMES SALMONELLA TYPHIMURIUM, Strain/Indicator: TA97, Metabolic Activation: NONE, Method: PREINCUBATION active; positive | Test System: AMES SALMONELLA TYPHIMURIUM, Strain/Indicator: TA98, Metabolic Activation: NONE, Method: PREINCUBATION active; positive | Test System: AMES SALMONELLA TYPHIMURIUM, Strain/Indicator: TA100, Metabolic Activation: NONE, Method: PREINCUBATION active; positive | Test System: AMES SALMONELLA TYPHIMURIUM, Strain/Indicator: TA104, Metabolic Activation: NONE, Method: PREINCUBATION active; positive | Test System: CHINESE HAMSTER V-79, Strain/Indicator: V-79/6-THIOGUANINE, Metabolic Activation: NONE, Method: STANDARD PLATE active; positive

Nc1ccc(I)cc1
inactive: End Point: IN VITRO MICRONUCLEUS, Test System: CHL/IU CELLS, Metabolic Activation: RAT, LIVER, S-9, PHENOBARBITAL AND 5,6-BENZOFLAVONE inactive; negative
